Assay results reported in ChEMBL document CHEMBL4177730, “Rational modification of semaxanib and sunitinib for developing a tumor growth inhibitor targeting ATP binding site of tyrosine kinase” (2018).
Activity calls are given as the source filed them.

Key:
Format in all cases: functional, cell-based
[1] = system: NCI-H226; assay: Growth inhibition of human NCI-H226 cells at 10 uM after 48 hrs by sulforhodamine B assay
[2] = system: MDA-MB-468; assay: Growth inhibition of human MDA-MB-468 cells at 10 uM after 48 hrs by sulforhodamine B assay
[3] = system: NCI-H23; assay: Growth inhibition of human NCI-H23 cells at 10 uM after 48 hrs by sulforhodamine B assay
[4] = system: TK-10; assay: Growth inhibition of human TK10 cells at 10 uM after 48 hrs by sulforhodamine B assay
[5] = system: RXF 393; assay: Growth inhibition of human RXF393 cells at 10 uM after 48 hrs by sulforhodamine B assay
[6] = system: RPMI-8226; assay: Growth inhibition of human RPMI8226 cells at 10 uM after 48 hrs by sulforhodamine B assay
[7] = system: DU-145; assay: Growth inhibition of human DU145 cells at 10 uM after 48 hrs by sulforhodamine B assay
[8] = system: OVCAR-5; assay: Growth inhibition of human OVCAR5 cells at 10 uM after 48 hrs by sulforhodamine B assay
[9] = system: OVCAR-4; assay: Growth inhibition of human OVCAR4 cells at 10 uM after 48 hrs by sulforhodamine B assay
[10] = system: NCI-H522; assay: Growth inhibition of human NCI-H522 cells at 10 uM after 48 hrs by sulforhodamine B assay
[11] = system: SF-268; assay: Growth inhibition of human SF268 cells at 10 uM after 48 hrs by sulforhodamine B assay
[12] = system: LOX IMVI; assay: Growth inhibition of human LOXIMVI cells at 10 uM after 48 hrs by sulforhodamine B assay
[13] = system: SK-OV-3; assay: Growth inhibition of human SKOV3 cells at 10 uM after 48 hrs by sulforhodamine B assay
[14] = system: PC-3; assay: Growth inhibition of human PC3 cells at 10 uM after 48 hrs by sulforhodamine B assay
[15] = system: SW-620; assay: Growth inhibition of human SW620 cells at 10 uM after 48 hrs by sulforhodamine B assay
[16] = system: SR; assay: Growth inhibition of human SR cells at 10 uM after 48 hrs by sulforhodamine B assay
[17] = system: SF-295; assay: Growth inhibition of human SF295 cells at 10 uM after 48 hrs by sulforhodamine B assay
[18] = system: MOLT-4; assay: Growth inhibition of human MOLT4 cells at 10 uM after 48 hrs by sulforhodamine B assay
[19] = system: HCT-116; assay: Growth inhibition of human HCT116 cells at 10 uM after 48 hrs by sulforhodamine B assay
[20] = system: K562; assay: Growth inhibition of human K562 cells at 10 uM after 48 hrs by sulforhodamine B assay
[21] = system: UO-31; assay: Growth inhibition of human UO31 cells at 10 uM after 48 hrs by sulforhodamine B assay
[22] = system: Hs-578T; assay: Growth inhibition of human Hs 578T cells at 10 uM after 48 hrs by sulforhodamine B assay
[23] = system: OVCAR-3; assay: Growth inhibition of human OVCAR3 cells at 10 uM after 48 hrs by sulforhodamine B assay
[24] = system: SNB-19; assay: Growth inhibition of human SNB19 cells at 10 uM after 48 hrs by sulforhodamine B assay
[25] = system: 786-0; assay: Growth inhibition of human 786-0 cells at 10 uM after 48 hrs by sulforhodamine B assay
[26] = system: A498; assay: Growth inhibition of human A498 cells at 10 uM after 48 hrs by sulforhodamine B assay
[27] = system: HT-29; assay: Growth inhibition of human HT-29 cells at 10 uM after 48 hrs by sulforhodamine B assay
[28] = system: MCF7; assay: Growth inhibition of human MCF7 cells at 10 uM after 48 hrs by sulforhodamine B assay
[29] = system: T47D; assay: Growth inhibition of human T47D cells at 10 uM after 48 hrs by sulforhodamine B assay
[30] = system: SF-539; assay: Growth inhibition of human SF539 cells at 10 uM after 48 hrs by sulforhodamine B assay
[31] = system: NCI-H322M; assay: Growth inhibition of human NCI-H322M cells at 10 uM after 48 hrs by sulforhodamine B assay
[32] = system: HL-60(TB); assay: Growth inhibition of human HL-60(TB) cells at 10 uM after 48 hrs by sulforhodamine B assay
[33] = system: HOP-92; assay: Growth inhibition of human HOP92 cells at 10 uM after 48 hrs by sulforhodamine B assay
[34] = system: OVCAR-8; assay: Growth inhibition of human OVCAR8 cells at 10 uM after 48 hrs by sulforhodamine B assay
[35] = system: SNB-75; assay: Growth inhibition of human SNB75 cells at 10 uM after 48 hrs by sulforhodamine B assay
[36] = system: BT-549; assay: Growth inhibition of human BT549 cells at 10 uM after 48 hrs by sulforhodamine B assay
[37] = system: ACHN; assay: Growth inhibition of human ACHN cells at 10 uM after 48 hrs by sulforhodamine B assay
[38] = system: CAKI-1; assay: Growth inhibition of human CAKI-1 cells at 10 uM after 48 hrs by sulforhodamine B assay
[39] = system: MDA-MB-231; assay: Growth inhibition of human MDA-MB-231 cells at 10 uM after 48 hrs by sulforhodamine B assay
[40] = system: HCC 2998; assay: Growth inhibition of human HCC2998 cells at 10 uM after 48 hrs by sulforhodamine B assay
[41] = system: UACC-62; assay: Growth inhibition of human UACC62 cells at 10 uM after 48 hrs by sulforhodamine B assay
[42] = system: COLO 205; assay: Growth inhibition of human COLO205 cells at 10 uM after 48 hrs by sulforhodamine B assay
[43] = system: NCI-H460; assay: Growth inhibition of human NCI-H460 cells at 10 uM after 48 hrs by sulforhodamine B assay
[44] = system: EKVX; assay: Growth inhibition of human EKVX cells at 10 uM after 48 hrs by sulforhodamine B assay
[45] = system: KM12; assay: Growth inhibition of human KM12 cells at 10 uM after 48 hrs by sulforhodamine B assay
[46] = system: M14; assay: Growth inhibition of human M14 cells at 10 uM after 48 hrs by sulforhodamine B assay
[47] = system: IGROV-1; assay: Growth inhibition of human IGROV1 cells at 10 uM after 48 hrs by sulforhodamine B assay
[48] = system: SK-MEL-28; assay: Growth inhibition of human SK-MEL-28 cells at 10 uM after 48 hrs by sulforhodamine B assay
[49] = system: U-251; assay: Growth inhibition of human U251 cells at 10 uM after 48 hrs by sulforhodamine B assay
[50] = system: A549; assay: Growth inhibition of human A549/ATCC cells at 10 uM after 48 hrs by sulforhodamine B assay
[51] = system: HOP-62; assay: Growth inhibition of human HOP62 cells at 10 uM after 48 hrs by sulforhodamine B assay
[52] = system: CCRF-CEM; assay: Growth inhibition of human CCRF-CEM cells at 10 uM after 48 hrs by sulforhodamine B assay
[53] = system: SK-MEL-2; assay: Growth inhibition of human SK-MEL-2 cells at 10 uM after 48 hrs by sulforhodamine B assay
[54] = system: SK-MEL-5; assay: Growth inhibition of human SK-MEL-5 cells at 10 uM after 48 hrs by sulforhodamine B assay
[55] = system: Malme-3M; assay: Growth inhibition of human MALME-3M cells at 10 uM after 48 hrs by sulforhodamine B assay
[56] = system: MDA-MB-435; assay: Growth inhibition of human MDA-MB-435 cells at 10 uM after 48 hrs by sulforhodamine B assay
[57] = system: NCI/ADR-RES; assay: Growth inhibition of human NCI-ADR-RES cells at 10 uM after 48 hrs by sulforhodamine B assay
[58] = system: SN12C; assay: Growth inhibition of human SN12C cells at 10 uM after 48 hrs by sulforhodamine B assay
[59] = system: HCT-15; assay: Growth inhibition of human HCT15 cells at 10 uM after 48 hrs by sulforhodamine B assay

Measured: growth inhibition (GI)

O=C1/C(=C\c2cccn2C(=O)c2ccccc2)c2ccccc2N1c1c(Cl)cccc1Cl
inactive: all assays above

O=C1/C(=C\c2cccn2Cc2ccc(F)cc2)c2ccccc2N1c1c(Cl)cccc1Cl
inactive: all assays above
